Assay results from patent publication US10112950B2, “Substituted imidazo[1,2-a]pyrazines as LSD1 inhibitors” (Incyte Corporation, priority 2014, dated 2018).

molecular target: LSD-1 enzyme (Homo sapiens (Human), UniProt O60341); assay: LANCE LSD1/KDM1A demethylase assay (LSD1 histone demethylase biochemical assay); conditions: 1 nM LSD-1 enzyme, 1 hour preincubation at 25° C., 0.4 μM Biotin-labeled Histone H3 peptide substrate
Method: LSD1 Histone Demethylase Biochemical Assay
LANCE LSD1/KDM1A demethylase assay-10 μL of 1 nM LSD-1 enzyme (ENZO BML-SE544-0050) in the assay buffer (50 mM Tris, pH 7.5, 0.01% Tween-20, 25 mM NaCl, 5 mM DTT) were preincubated for 1 hour at 25° C. with 0.8 μL compound/DMSO dotted in black 384 well polystyrene plates. […] Reactions were stopped by addition of 10 μL 1× LANCE Detection Buffer (PerkinElmer CR97-100) supplemented with 1.5 nM Eu-anti-unmodified H3K4 Antibody (PerkinElmer TRF0404), and 225 nM LANCE Ultra Streptavidin (PerkinElmer TRF102) along with 0.9 mM Tranylcypromine-HCl (Millipore 616431). After stopping the reactions plates were incubated for 30 minutes and read on a PHERAstar FS plate reader (BMG Labtech).

Row | Compound | IC50
1 | CN1CCC[C@@H](COc2nc(-c3ccc(C#N)cc3)c(-c3ccc(N(C)CC4CCCO4)nc3)n3ccnc23)C1 (stereo partly drawn) [Example 52, 4-(8-{[(3R)-1-methylpiperidin-3-yl]methoxy}-5-{6-[methyl(tetrahydrofuran-2-ylmethyl)amino]pyridin-3-yl}imidazo[1,2-a]pyrazin-6-yl)benzonitrile] | ≤ 50 nM
2 | CN1CCC[C@@H](COc2nc(-c3ccc(C#N)cc3)c(-c3cnc4c(ccn4C)c3)n3ccnc23)C1 [Example 53, 4-[8-{[(3R)-1-methylpiperidin-3-yl]methoxy}-5-(1-methyl-1H-pyrrolo[2,3-b]pyridin-5-yl)imidazo[1,2-a]pyrazin-6-yl]benzonitrile] | ≤ 50 nM
3 | CN(C)C1CCN(c2nc(-c3ccc(C#N)cc3)c(-c3ccc(N4CCCC4=O)nc3)n3ccnc23)CC1 [Example 57, 4-{8-[4-(dimethylamino)piperidin-1-yl]-5-[6-(2-oxopyrrolidin-1-yl)pyridin-3-yl]imidazo[1,2-a]pyrazin-6-yl}benzonitrile] | ≤ 50 nM
4 | CN(C)C1CCN(c2nc(-c3ccc(C#N)cc3)c(-c3cnc4c(cnn4C)c3)n3ccnc23)CC1 [Example 58, 4-[8-[4-(dimethylamino)piperidin-1-yl]-5-(1-methyl-1H-pyrazolo[3,4-b]pyridin-5-yl)imidazo[1,2-a]pyrazin-6-yl]benzonitrile] | ≤ 50 nM
5 | CN(C)C1CCN(c2nc(-c3ccc(C#N)cc3)c(-c3ccc4c(c3)oc(=O)n4C)n3ccnc23)CC1 [Example 59, 4-[8-[4-(dimethylamino)piperidin-1-yl]-5-(3-methyl-2-oxo-2,3-dihydro-1,3-benzoxazol-6-yl)imidazo[1,2-a]pyrazin-6-yl]benzonitrile] | ≤ 50 nM
6 | CN1C(=O)COc2cc(-c3c(-c4ccc(C#N)cc4)nc(N4CCC(N(C)C)CC4)c4nccn34)ccc21 [Example 60, 4-[8-[4-(dimethylamino)piperidin-1-yl]-5-(4-methyl-3-oxo-3,4-dihydro-2H-1,4-benzoxazin-7-yl)imidazo[1,2-a]pyrazin-6-yl]benzonitrile] | ≤ 50 nM
7 | CN(C)C1CCN(c2nc(-c3ccc(C#N)cc3)c(-c3cc4oc(=O)n(C)c4cc3F)n3ccnc23)CC1 [Example 62, 4-[8-[4-(dimethylamino)piperidin-1-yl]-5-(5-fluoro-3-methyl-2-oxo-2,3-dihydro-1,3-benzoxazol-6-yl)imidazo[1,2-a]pyrazin-6-yl]benzonitrile] | ≤ 50 nM
8 | Cn1ncc2cc(-c3c(-c4ccc(C#N)cc4)nc(OC[C@@H]4CCCN(CCO)C4)c4nccn34)ccc21 [Example 65, 4-[8-{[(3R)-1-(2-hydroxyethyl)piperidin-3-yl]methoxy}-5-(1-methyl-1H-indazol-5-yl)imidazo[1,2-a]pyrazin-6-yl]benzonitrile] | ≤ 50 nM
9 | CN(C)C1CCN(c2nc(-c3ccc(C#N)cc3)c(-c3cnc4c(c3)oc(=O)n4C)n3ccnc23)CC1 [Example 66, 4-[8-[4-(dimethylamino)piperidin-1-yl]-5-(3-methyl-2-oxo-2,3-dihydro[1,3]oxazolo[4,5-b]pyridin-6-yl)imidazo[1,2-a]pyrazin-6-yl]benzonitrile] | ≤ 50 nM
10 | CN(C)C1CCN(c2nc(-c3ccc(C#N)cc3)c(-c3ccc(N4CCOC4=O)nc3)n3ccnc23)CC1 [Example 67, 4-{8-[4-(dimethylamino)piperidin-1-yl]-5-[6-(2-oxo-1,3-oxazolidin-3-yl)pyridin-3-yl]imidazo[1,2-a]pyrazin-6-yl}benzonitrile] | ≤ 50 nM
11 | CN(C)C1CCN(c2nc(-c3ccc(C#N)cc3)c(-c3ccc4c(c3)c(N)nn4C)n3ccnc23)CC1 [Example 68, 4-{5-(3-amino-1-methyl-1H-indazol-5-yl)-8-[4-(dimethylamino)piperidin-1-yl]imidazo[1,2-a]pyrazin-6-yl}benzonitrile] | ≤ 50 nM
12 | Cc1ccc(-c2c(-c3ccc(C#N)cc3)nc(OC[C@@H]3CCCN(C)C3)c3nccn23)cc1C#N [Example 69, 5-(6-(4-cyanophenyl)-8-{[(3R)-1-methylpiperidin-3-yl]methoxy}imidazo[1,2-a]pyrazin-5-yl)-2-methylbenzonitrile] | ≤ 50 nM
